We go through 25 compounds from patent publication US9206159B2, “Piperazine-piperidine compounds as hepatitis C virus inhibitors” (Theravance Biopharma R&D IP, LLC, priority 2012, dated 2015).

Assay [1] deals with HCV genotype 1b replicon cell line. Nature of the assay: HCV Genotype 1b Replicon Assay. It counts as cell-based, hepatitis C virus. The conditions noted are these: Renilla luciferase readout, 48 hours; for Genotype 1b (pEC50 class): Huh7 cell background. The source says: Assay 1: HCV Genotype 1b Replicon Assay
The HCV genotype 1b replicon cell line was obtained from Apath LLC (Brooklyn, N.Y.) (APC144; Huh7 cell background). This subgenomic replicon contains the N-terminus of the HCV core protein fused to the neomycin-resistance selectable marker. The EMCV IRES lies downstream and drives expression of humanized Renilla luciferase fused to the non-structural proteins NS3-NS5B. This cell line was used to determine compound potency using the luciferase activity readout as a measurement of compound inhibition of replicon levels.
Cells were grown at 37° C. in a 5% CO2 humidified incubator in DMEM (Invitrogen) with 10% FBS (HyClone), 1×NEAA (Invitrogen), 1× Pen-Strep (Invitrogen), and 500 μg/mL G418 (Invitrogen). On day 1 of the assay, cells were plated at 10,000 cells/well in white 96-well tissue culture plates (Costar) in 200 μL media lacking G418. Four hours later, once the cells have adhered, the media was removed and replaced with media (no G418) containing dose-responses of test compounds. Compounds were initially diluted in DMSO and then diluted another 200× in media to bring the final DMSO concentration down to 0.5%. The cells were incubated with test compounds for 48 hours. At the end of the incubation period, media and compound were removed from the plates and the luciferase activity was determined using Promega Renilla-Glo reagents.
To analyze the data, the luciferase activity was plotted vs. the compound concentration, and EC50 values were determined from a 4-parameter robust fit model with the GraphPad Prism software package (GraphPad Software, Inc., San Diego, Calif.). Results are expressed as the negative decadic logarithm of the EC50 value, pEC50.
Test compounds having a higher pEC50 value in this assay show greater inhibition of HCV genotype 1b replication.
In general terms: A replicon is a self-replicating genome or part of one, used to study replication in cells.

For assay [2], the system named is HCV genotype 1a replicon cell line. As to the kind of experiment: HCV Genotype 1a Replicon Assay. Format: cell-based, hepatitis C virus. The settings on record: Huh7.5 cell background, NS3-specific protease activity in lysates, 48 or 72 hours; for EC50: Hepatitis C virus, read-out: Genotype 1a (pEC50 class) (converted). Summed up: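 Huh7.5-based subgenomic genotype 1a replicon cells, plated without G418, exposed to compound dose-responses (0.5% DMSO final) for 48 or 72 h at 37 °C. Lysate NS3/4a protease activity read with 15 μM FRET substrate, 20 min at 37 °C (Ex 340/Em 509 nm); EC50 from 4-parameter fit.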

SMILES strings stand for the structures.

`COC(=O)N[C@H](C(=O)N1CCC[C@H]1c1nc(-c2ccc(-c3ccc(NC(=O)N4CCN(C5CCN(C(=O)C6CC6)CC5)CC4)cc3OC(F)(F)F)cc2)c[nH]1)C(C)C` [Example 1-13]: in assay [1], the “Genotype 1b (pEC50 class)” value is given as “D (D represents pEC50>10 (EC50<0.1 nM))”. Also, the “Genotype 1a (pEC50 class)” value in assay [2] is “C (C represents pEC50 between and 9 and about 10, (EC50 between 1 nM and 0.1 nM))”.
Take `COC(=O)N[C@H](C(=O)N1CCC[C@H]1c1nc(-c2ccc(-c3ccc(NC(=O)N4CCN(C5CCN(C(=O)OC(C)(C)C)CC5)CC4)cc3)cc2)c[nH]1)C(C)C` [Example 1-1]: in assay [1], the “Genotype 1b (pEC50 class)” value was “D (D represents pEC50>10 (EC50<0.1 nM))”. Further, the “Genotype 1a (pEC50 class)” value in assay [2] is “C (C represents pEC50 between and 9 and about 10, (EC50 between 1 nM and 0.1 nM))”.
On to `COC(=O)N[C@H](C(=O)N1C[C@@H](C)C[C@H]1c1nc(-c2ccc(-c3ccc(NC(=O)N4CCC(N5CCN(C(=O)C(C)(C)CO)CC5)CC4)cc3OC(F)(F)F)cc2)c[nH]1)C1CCOCC1` [Example 9-1], for which the “Genotype 1b (pEC50 class)” value in assay [1] was “D (D represents pEC50>10 (EC50<0.1 nM))”. Also, the “Genotype 1a (pEC50 class)” value in assay [2] was “C (C represents pEC50 between and 9 and about 10, (EC50 between 1 nM and 0.1 nM))”.
Regarding `COC(=O)N[C@H](C(=O)N1C[C@@H](C)C[C@H]1c1nc(-c2ccc(-c3ccc(NC(=O)N4CCC(N5CCN(C(=O)C(C)(C)CO)CC5)CC4)cc3OC(F)(F)F)cc2)c(F)[nH]1)C1CCOCC1` [Example 9-3], the EC50 in assay [1] (Hepatitis C virus, Huh-7, Huh7 cell background, read-out: Genotype 1b (pEC50 class) (converted)) is less than 0.1 nM; in assay [2] it was 0.1 to 1 nM.
Consider `COC(=O)N[C@H](C(=O)N1C[C@@H](C)C[C@H]1c1nc(-c2ccc(-c3cc(Cl)c(NC(=O)N4CCN(C5CCN(C(=O)[C@H]6CC6(C)C)CC5)CC4)cc3OC(F)(F)F)cc2)c[nH]1)C(C)C` [Example 3], for which, in assay [2], the “Genotype 1a (pEC50 class)” value was “C (C represents pEC50 between and 9 and about 10, (EC50 between 1 nM and 0.1 nM))”.
With `COC(=O)N[C@H](C(=O)N1C[C@@H](C)C[C@H]1c1nc(-c2ccc(-c3ccc(NC(=O)N4CCN(C5CCN(C(=O)C6CC6)CC5)CC4)cc3OC(F)(F)F)cc2)c(Cl)[nH]1)C(C)C` [Example 2-26], the “Genotype 1a (pEC50 class)” value in assay [2] was “D (D represents pEC50>10 (EC50<0.1 nM))”.
Take `COC(=O)N[C@H](C(=O)N1CCC[C@H]1c1nc(-c2ccc(-c3cc(Cl)c(NC(=O)N4CCN(C5CCN(C(=O)OC(C)(C)C)CC5)CC4)cc3OC(F)(F)F)cc2)c[nH]1)C(C)C` [Example 1-36]: the “Genotype 1a (pEC50 class)” value in assay [2] is “C (C represents pEC50 between and 9 and about 10, (EC50 between 1 nM and 0.1 nM))”.
For the compound `COC(=O)N[C@H](C(=O)N1C[C@@H](OC)C[C@H]1c1nc(-c2ccc(-c3ccc(NC(=O)N4CCN(C5CCN(C(=O)C6CC6)CC5)CC4)cc3OC(F)(F)F)cc2)c[nH]1)C(C)C` [Example 5-3], in assay [2], the EC50 is 0.1 to 1 nM.
For the compound `COC(=O)N[C@H](C(=O)N1C[C@@H](C)C[C@H]1c1nc(-c2ccc(-c3cc(Cl)c(NC(=O)N4CCN(C5CCN(C(=O)OC(C)(C)C)CC5)CC4)cc3OC(F)(F)F)cc2)c[nH]1)C(C)C` [Example 2-8], in assay [2], the “Genotype 1a (pEC50 class)” value is “C (C represents pEC50 between and 9 and about 10, (EC50 between 1 nM and 0.1 nM))”.
The same measure, in the same setting: with `COC(=O)N[C@H](C(=O)N1C[C@@H](C)C[C@H]1c1nc(-c2ccc(-c3cc(F)c(NC(=O)N4CCC(N5CCN(C(=O)C6CC6)CC5)CC4)cc3OC(F)(F)F)cc2)c[nH]1)C(C)C` [Example 4-9] the entry was “C (C represents pEC50 between and 9 and about 10, (EC50 between 1 nM and 0.1 nM))”; with `CCN(CC)[C@@H](C(=O)N1CCC(N2CCN(C(=O)Nc3ccc(-c4ccc(-c5c[nH]c([C@@H]6CCCN6C(=O)[C@@H](NC(=O)OC)C(C)C)n5)cc4)c(OC(F)(F)F)c3)CC2)CC1)c1ccccc1` [Example 1-32], “A (A represents a pEC50 value between 6 and 8 (EC50 between 1 μM and 10 nM))”; with `COC(=O)N[C@H](C(=O)N1CCC[C@H]1c1nc(-c2ccc(-c3ccc(NC(=O)N4CCC(N5CCN(C(=O)OC)CC5)CC4)cc3)cc2)c[nH]1)C(C)C` [Example 3-6], “A (A represents a pEC50 value between 6 and 8 (EC50 between 1 μM and 10 nM))”.
`CNC(=O)N1CCC(N2CCN(C(=O)Nc3ccc(-c4ccc(-c5c[nH]c(C6CCCN6C(=O)C(NC(=O)OC)C(C)C)n5)cc4)c(OC(F)(F)F)c3)CC2C)CC1` (centres unmarked) [Example 1-39]: the “Genotype 1a (pEC50 class)” value in assay [2] is “B (B represents pEC50 between 8 and 9 (EC50 between 1 and 10 nM))”.
On the same count and under the same terms, with `COC(=O)N[C@H](C(=O)N1CCC[C@H]1c1nc(-c2ccc(-c3ccc(NC(=O)N4CCN(C5CCN(C(=O)C6CC6)CC5)C[C@@H]4C)cc3OC(F)(F)F)cc2)c[nH]1)C(C)C` [Example 1-41] the entry was “B (B represents pEC50 between 8 and 9 (EC50 between 1 and 10 nM))”.
With `COC(=O)N[C@H](C(=O)N1[C@@H](C)CC[C@H]1c1nc(-c2ccc(-c3ccc(NC(=O)N4CCN(C5CCN(C(=O)[C@H]6CC6(C)C)CC5)CC4)cc3OC(F)(F)F)cc2)c[nH]1)C(C)C` [Example 8-5], in assay [2], the EC50 is 0.1 to 1 nM.
As for `COC(=O)N[C@H](C(=O)N1CCC(N2CCN(C(=O)Nc3ccc(-c4ccc(-c5c[nH]c([C@@H]6CCCN6C(=O)[C@@H](NC(=O)OC)C(C)C)n5)cc4)c(OC(F)(F)F)c3)CC2)CC1)C(C)C` [Example 1-29], the “Genotype 1a (pEC50 class)” value in assay [2] is “A (A represents a pEC50 value between 6 and 8 (EC50 between 1 μM and 10 nM))”.
`COC(=O)N[C@H](C(=O)N1CCC[C@H]1c1nc(-c2ccc(-c3ccc(NC(=O)N4CCN(C5CCN(C(=O)C6CC6)CC5)[C@@H](C)C4)cc3OC(F)(F)F)cc2)c[nH]1)C(C)C` [Example 1, ((S)-1-{(S)-2-[4-(4′-{[(S)-4-(1-Cyclopropanecarbonyl-piperidin-4-yl)-3-methyl-piperazine-1-carbonyl]-amino}-2′-trifluoromethoxy-biphenyl-4-yl)-1H-imidazol-2-yl]-pyrrolidine-1-carbonyl}-2-methyl-propyl)-carbamic acid methyl ester]: the EC50 in assay [2] was 0.1 to 1 nM.
Consider `COC(=O)N[C@H](C(=O)N1[C@@H](C)CC[C@H]1c1nc(-c2ccc(-c3ccc(NC(=O)N4CCN(C5CCN(C(=O)C6CC6)CC5)CC4)cc3OC(F)(F)F)cc2)c[nH]1)C(C)C` [Example 8-4], for which, in assay [2], the EC50 was 0.1 to 1 nM.
As to `COC(=O)N[C@H](C(=O)N1C[C@@H](C)C[C@H]1c1nc(-c2ccc(-c3ccc(NC(=O)N4CCN(C5CCN(C(=O)C(C)(C)C)CC5)CC4)cc3OC(F)(F)F)cc2)c(F)[nH]1)C(C)C` [Example 8, [(S)-1-((2S,4S)-2-{4-[4′-({4-[1-(2,2-Dimethyl-propionyl)-piperidin-4-yl]-piperazine-1-carbonyl}-amino)-2′-trifluoromethoxy-biphenyl-4-yl]-5-fluoro-1H-imidazol-2-yl}-4-methyl-pyrrolidine-1-carbonyl)-2-methyl-propyl]-carbamic acid methyl ester], the EC50 in assay [2] is less than 0.1 nM.
Take `COC(=O)N[C@H](C(=O)N1CCC[C@H]1c1nc(-c2ccc(-c3ccc(NC(=O)N4CCN(C5CCN(C(=O)C(C)NC(N)=O)CC5)CC4)cc3OC(F)(F)F)cc2)c[nH]1)C(C)C` (some centres unmarked) [Example 1-15]: the “Genotype 1a (pEC50 class)” value in assay [2] was “B (B represents pEC50 between 8 and 9 (EC50 between 1 and 10 nM))”.
As for `COC(=O)N[C@H](C(=O)N1C[C@@H](C)C[C@H]1c1nc(-c2ccc(-c3cc(Cl)c(NC(=O)N4CCC(N5CCN(C(=O)OC(C)(C)C)CC5)CC4)cc3OC(F)(F)F)cc2)c[nH]1)C(C)C` [Example 4-12], the “Genotype 1a (pEC50 class)” value in assay [2] is “B (B represents pEC50 between 8 and 9 (EC50 between 1 and 10 nM))”.
Still for that read-out and setting: with `COC(=O)N[C@H](C(=O)N1CCC[C@H]1c1nc(-c2ccc(-c3ccc(NC(=O)N4CCN(C5CCN(C(=O)[C@H]6CC6(C)C)CC5)CC4)cc3)cc2)c[nH]1)C(C)C` [Example 1-3] the entry was “C (C represents pEC50 between and 9 and about 10, (EC50 between 1 nM and 0.1 nM))”; with `COC(=O)N[C@H](C(=O)N1CCC[C@H]1c1nc(-c2ccc(-c3ccc(NC(=O)N4CCN(C5CCN(C(=O)C67CC8CC(CC(O)(C8)C6)C7)CC5)CC4)cc3OC(F)(F)F)cc2)c[nH]1)C(C)C` [Example 1-10], “B (B represents pEC50 between 8 and 9 (EC50 between 1 and 10 nM))”; with `CNC(=O)N1CCC(N2CCN(C(=O)Nc3ccc(-c4ccc(-c5c[nH]c([C@@H]6C[C@H](C)CN6C(=O)[C@@H](NC(=O)OC)C(C)C)n5)cc4)c(OC(F)(F)F)c3)CC2)CC1` [Example 2-12], “C (C represents pEC50 between and 9 and about 10, (EC50 between 1 nM and 0.1 nM))”.
The same measure, in the same setting: with `COC(=O)N[C@H](C(=O)N1C[C@@H](C)C[C@H]1c1nc(-c2ccc(-c3ccc(NC(=O)N4CCN(C5CCN(C(=O)OC(C)(C)C)CC5)CC4)cc3OC(F)(F)F)cc2)c(F)[nH]1)C(C)C` [Example 2-28] the entry was “D (D represents pEC50>10 (EC50<0.1 nM))”.
